Measurements as given in EP0489933A1, “BILE ALCOHOL AND DRUG CONTAINING THE SAME AS ACTIVE INGREDIENT” (TSUMURA CO., LTD., priority 1990, dated 1992).

Columns and labels:
red blood cells = assay: Inhibition of thermal hemolysis of red blood cells; type: cell-based, donryu rats; details: Rattus norvegicus, Erythrocyte, 20 min, 53°C for 20 minutes, read-out: Hemolysis Inhibition Ratio (%) against Control; for inhibition at 10 µM: 0.01 mM; for inhibition at 50 µM: 0.05 mM; for inhibition at 100 µM: 0.1 mM; for inhibition at 200 µM: 0.2 mM; for inhibition at 500 µM: 0.5 mM
Experimental: Blood was collected from donryu rats of 150 to 200 g in body weight and centrifuged at 1,500 rpm for 5 minutes to obtain red blood cells. The red blood cells thus collected were diluted with 0.15 M phosphate buffer (pH 7.4) to prepare a 5% red blood cell suspension. A 3.8 ml portion of the thus prepared suspension was mixed with 0.2 ml solution of each compound of the present invention which has been adjusted to each level of the concentrations as shown in the following table, and the resulting mixture was shaken thoroughly and incubated at 53°C for 20 minutes. Thereafter, the thus incubated mixture was cooled rapidly with tap water and centrifuged at 3,000 rpm for 15 minutes, and absorbance at 540 nm of the resulting supernatant fluid was measured using a spectrophotometer (Hitachi: Type 200-20). Inhibition rate (%) of red blood cell hemolysis at each concentration of the compound was calculated based on the absorbance, with the results shown in Table 8.

Qualitative solubility = type: physicochemical
male rats of SD line = assay: High cholesterol feed: blood viscosity, serum total cholesterol, triglyceride, GOT; type: in vivo; details: 100 mg/kg/day, p.o., 4 days
Experimental: In this experiment, 5-week-old male rats of SD line (5 individuals per one group) were used after rearing them for 1 week using normal feed, and each compound of the present invention (100 mg/kg) was administered orally once a day for 4 days. Simultaneously with the commencement of the administration, the normal feed was replaced by a high cholesterol feed. After completion of the administration, they were subjected to fasting treatment for 24 hours. Thereafter, each rat was subjected to ventrotomy under anesthesia with Nembutal® (Dainabot Co., Ltd.; 50 mg/kg, i.p.) to collect blood from abdominal aorta, and the collected blood sample was checked for its blood viscosity using a viscometer (Biolyzer, Tokyo Keiki Co., Ltd.). At the same time, total cholesterol (Wako Pure Chemical Industries, Ltd.; Cholesterol E-test wako), triglyceride (Wako Pure Chemical Industries, Ltd.; Triglyceride G-test wako) and GOT (Wako Pure Chemical Industries, Ltd.; GOT-UV test-wako) in serum samples were measured.

Structure (SMILES)	inhibition at 10 µM (red blood cells)	inhibition at 50 µM (red blood cells)	inhibition at 100 µM (red blood cells)	inhibition at 200 µM (red blood cells)	inhibition at 500 µM (red blood cells)	solubility in H₂O (Qualitative solubility)	GOT ±S.E. (male rats of SD line)	Total Cholesterol ±S.E. (male rats of SD line)	Triglyceride ±S.E. (male rats of SD line)
C[C@H](CC[C@@H](O)C1COC1)[C@H]1CC[C@H]2[C@@H]3[C@H](O)C[C@@H]4C[C@H](O)CC[C@]4(C)[C@H]3C[C@H](O)[C@]12C [Example 5, (24R)-(+)-26,27-epoxy-5β-cholestane-3α,7α,12α,24-tetrol]	23%	19%	30%	41%	61%	insol in H₂O	141 ± 13 IU/ℓ	405 ± 99 mg/dL	91 ± 33 mg/dL
C[C@H](CC[C@H]1OC[C@H]1CO)[C@H]1CC[C@H]2[C@@H]3[C@H](O)C[C@@H]4C[C@H](O)CC[C@]4(C)[C@H]3C[C@H](O)[C@]12C [Example 4, (24R)-(25R)-(+)-24,26-epoxy-5β-cholestane-3α,7α,12α,27-tetrol]	27%	21%	31%	44%	48%	insol in H₂O	138 ± 9 IU/ℓ	428 ± 49 mg/dL	92 ± 45 mg/dL
